Reference: EPA's ToxValDB 9.5

Test system: Rattus norvegicus
Details: oral
[1] = short-term, duration: 28 days, gavage, F, Sprague-Dawley, Clinical Observation: Soiled perigenital fur + Body Weight Changes: Gain decrease + Urinalysis: Pale yellow or yellow/slightly brownish + …
[2] = short-term, duration: 28 days, gavage, M, Sprague-Dawley, Clinical Observation: Soiled perigenital fur + Body Weight Changes: Gain decrease + Urinalysis: Pale yellow or yellow/slightly brownish + …
[3] = subchronic, gavage, M, Sprague-Dawley, Absolute Organ Weight: Seminal vesicle increase, Prostate increase + Relative Organ Weight: Seminal vesicle increase, Prostate increase
[4] = subchronic, gavage, M, Sprague-Dawley, Deaths + Clinical Observation: Diarrhea SalivationSoft feces Decreased locomotor activity BradypneaIncomplete eyelid opening AnorexiaSoiled …
[5] = short-term, duration: 28 days, gavage, M/F, Sprague-Dawley, Deaths + Clinical Observation: Tremor Locomotor activity decrease1000 Ptosis Prone position Lateral position Soiled peritoneal region …
[6] = subchronic, gavage, M, Sprague-Dawley, Clinical Observation: Salivation + Water Consumption: increase + Urinalysis: Urinary volume increase + Thyroid Hormone: Thyroid hormones', '…
[7] = short-term, duration: 28 days, gavage, M/F, Sprague-Dawley, Clinical Observation: Sedation Paleness + Functional Observational Battery: Forelimb grip strength decrease, Motor activity decrease, Motor …
[8] = short-term, duration: 28 days, gavage, M, Sprague-Dawley, Clinical Observation: Locomotor activity decrease, SalivationRespiratory rate decrease, Incomplete eyelid opening + Body Weight Changes: …
[9] = short-term, duration: 28 days, gavage, F, Sprague-Dawley, Water Consumption: increase + Urinalysis: Volume increase, Osmolarity decrease, Bil increase + Hematology: RBC decrease300 Hgb decrease300 …
[10] = short-term, duration: 28 days, gavage, M, Sprague-Dawley, Water Consumption: increase + Urinalysis: Volume increase, Osmolarity decrease, Bil increase + Hematology: RBC decrease300 Hgb decrease300 …

Q: What does the source list for `CCC(C)(C)c1ccccc1` [tert-Pentylbenzene]?
A: LOEL [1]: 1000 mg/kg-day; NOEL [1]: 300 mg/kg-day; LOEL [2]: 100 mg/kg-day; NOEL [2]: < 100 mg/kg-day

Q: `CC(C)(C)c1cc(C(=O)O)c(O)c(C(C)(C)C)c1` [Benzoic acid, 3,5-bis(1,1-dimethylethyl)-2-hydroxy-] was tested. Which NOEL (subchronic, gavage, M, Sprague-Dawley, Blood Chemistry: ALT(GPT) increase, TG increase + Absolute Organ Weight: Liver increase + Relative Organ Weight: Liver increase) did it give?
A: 20 mg/kg-day

Q: For `O=[N+]([O-])c1ccc(Cl)c([N+](=O)[O-])c1` [1-Chloro-2,4-dinitrobenzene], which NOEL (subchronic, gavage, M, Sprague-Dawley, Relative Organ Weight: Thymus decrease + Histopathology: Stomach/forestomach- Squamous cell hyperplasia Stomach/forestomach -inflammatory …) is on record?
A: 1 mg/kg-day

Q: Which results are given for `CC/C=C\CCOC(C)=O` [(3Z)-3-Hexenyl acetate]?
A: NOAEL [3]: 1000 mg/kg-day; NOEL [3]: 300 mg/kg-day

Q: `O=N[O-].[Na+]` [Sodium nitrite] was tested. Which NOEL (chronic, duration: 14 weeks, water, F, Fischer 344, Deaths + Clinical Observation: Brown discoloration in eyes Cyanosis Hypoactive Alopecia + Body Weight Changes: decrease + Water Consumption…) did it give?
A: < 40 mg/kg-day

Q: And the NOEL (chronic, duration: 14 weeks, water, M/F, Fischer 344, Deaths + Clinical Observation: Brown discoloration in eyes Cyanosis Hypoactive Alopecia + Body Weight Changes: decrease + Water Consumption…)?
A: < 83.6 mg/kg-day

Q: `Cc1cc(O)c(C)c(C)c1O` [2,3,5-Trimethylhydroquinone] was tested. Which NOEL (subchronic, gavage, M, Sprague-Dawley, Deaths + Clinical Observation: Salivation Locomotor activity decrease, Irregular respiration + Body Weight Changes: decrease + Hematology: …) did it give?
A: < 10 mg/kg-day

Q: Which NOEL (subchronic, duration: 13 weeks, diet, M/F, Fischer 344, Body Weight Changes: decrease) does the source give for `[Cl][Sn][Cl]` [Stannous chloride] here?
A: 365 mg/kg-day

Q: `CCOP(OCC)OCC` [Triethyl phosphite] was tested. Which NOAEL (subchronic, duration: 32 days, gavage, M/F, Deaths + Clinical Observation: Impaired general condition Emaciation Unkempt fur + Body Weight Changes: Weight gain decrease + Food …) did it give?
A: 150 mg/kg-day

Q: What does the source list for `CCc1cc(Cc2cc(CC)cc(C(C)(C)C)c2O)c(O)c(C(C)(C)C)c1` [2,2'-Methylenebis(ethyl-6-tert-butylphenol)]?
A: NOAEL [4]: 30 mg/kg-day; NOEL [4]: < 30 mg/kg-day

Q: Which NOEL (subchronic, duration: 13 weeks, water, F, Fischer 344, Deaths + Body Weight Changes: decrease + Water Consumption: decrease + Blood Chemistry: Pi increase + Absolute Organ Weight: Kidney increase…) does the source give for `O.O.[Ba+2].[Cl-].[Cl-]` [Barium chloride dihydrate] here?
A: 10 mg/kg-day

Q: What about the NOEL (subchronic, duration: 13 weeks, water, M/F, Fischer 344, Deaths + Body Weight Changes: decrease + Water Consumption: decrease + Blood Chemistry: Pi increase + Absolute Organ Weight: Kidney increase…) of the same compound?
A: 19 mg/kg-day

Q: `Nc1ccccc1Cl` [2-Chloroaniline] was tested. Which NOEL (subchronic, gavage, M/F, Fischer 344, Deaths + Clinical Observation: Tremors Wasting Bluish discoloration of genital and footpad regions + Body Weight Changes: decrease + …) did it give?
A: < 10 mg/kg-day

Q: Which NOAEL (short-term, duration: 28 days, gavage, M/F, CD(SD), Body Weight Changes: decrease + Food Consumption: decrease + Hematology: RBC decrease, HGB decrease, HCT decrease, MCHC decrease, RET …) does the source give for `C=C[Si](OCCOC)(OCCOC)OCCOC` [Tris(2-methoxyethoxy)vinylsilane] here?
A: 25 mg/kg-day

Q: For `COc1cc(S(=O)(=O)CCOS(=O)(=O)O)c(C)cc1N`, which NOEL (short-term, duration: 28 days, gavage, M, Absolute Organ Weight: Liver increase + Histopathology: Kidney-Eosinophilic droplet, tubular epithelium) is on record?
A: 30 mg/kg-day

Q: How did the NOEL (subchronic, duration: 35 days, gavage, M/F, Sprague-Dawley, Deaths + Clinical Observation: Locomotor activity decrease, Prone position Dyspnea Ataxic gait Ptosis Piloerection Respiratory rate increase…) turn out when `COC(=O)C1=C(C)NC(C)=C(C(=O)OCCN(C)Cc2ccccc2)C1c1cccc([N+](=O)[O-])c1.Cl` (stereo unspecified) [Nicardipine hydrochloride] was run?
A: 10 mg/kg-day

Q: For `C=CCCCC=C(C)C` [1,6-Octadiene, 7-methyl-], which NOEL (short-term, duration: 28 days, gavage, M/F, Clinical Observation: Salivation + Blood Chemistry: TG increase) is on record?
A: 10 mg/kg-day

Q: Which LOAEL [5] does the source give for `Cc1cc(O)ccc1Cl` [4-Chloro-3-methylphenol] here?
A: 250 mg/kg-day

Q: What about the LOEL [5] of the same compound?
A: 250 mg/kg-day

Q: What about the NOAEL [5] of the same compound?
A: 60 mg/kg-day

Q: What about the NOEL [5] of the same compound?
A: 60 mg/kg-day

Q: With `CCC[CH2][Sn]([CH2]CCC)([CH2]CCC)[CH2]CCC` [Tetrabutyltin] as the compound, how does the NOAEL (subchronic, duration: 33 days, diet, M, Wistar, Body Weight Changes: Weight gain decrease + Absolute Organ Weight: Thymus decrease + Relative Organ Weight: Thymus decrease, Spleen decrease…) read?
A: 9.6 mg/kg-day

Q: For `Fc1ccc(Br)cc1F` [4-Bromo-1,2-difluorobenzene], which NOEL (short-term, duration: 28 days, gavage, M/F, Deaths + Clinical Observation: Locomotor activity decrease, Salivation Paleness of Auricle + Body Weight Changes: Gain decrease + …) is on record?
A: 20 mg/kg-day

Q: With `S=c1[nH]c2ccccc2[nH]1` [2-Mercaptobenzimidazole] as the compound, how does the NOEL (short-term, duration: 28 days, gavage, M/F, Wistar, Body Weight Changes: decrease + Food Consumption: decrease + Hematology: Hct decrease, Plt decrease, WBC decrease, APTT increase + Blood …) read?
A: < 2 mg/kg-day

Q: With `O=[N+]([O-])c1ccc(Nc2ccc(Nc3ccccc3)c(S(=O)(=O)[O-])c2)c([N+](=O)[O-])c1.[Na+]` [C.I. Acid Orange 3] as the compound, how does the NOEL (subchronic, duration: 13 weeks, gavage, M/F, Fischer 344, Deaths + Body Weight Changes: decrease + Histopathology: Kidney-Nephrosis Kidney-Suppurative inflammation Kidney/Renal papilla - Necrosis …) read?
A: 750 mg/kg-day

Q: `ClCc1ccc(-c2ccc(CCl)cc2)cc1` [4,4'-Bis(chloromethyl)-1,1'-biphenyl] was tested. Which NOEL (subchronic, gavage, Sprague-Dawley) did it give?
A: 1000 mg/kg-day

Q: How did the NOEL (subchronic, duration: 13 weeks, diet, M/F, Fischer 344, Histopathology: Spleen-Congestion Spleen-Extramedullary hematopoiesis Spleen-Hemosiderosis Spleen-Thickened capsule Spleen-Lymphoid atrophy …) turn out when `Cl.Nc1ccccc1-c1ccccc1` [2-Biphenylamine hydrochloride] was run?
A: 28.8 mg/kg-day

Q: `Oc1cccc2cccnc12` [8-Hydroxyquinoline] was tested. Which NOEL (subchronic, gavage, M, Sprague-Dawley, Clinical Observation: Salivation + Functional Observational Battery: Salivation + Body Weight Changes: Body weight gain decrease(tendency)…) did it give?
A: 100 mg/kg-day

Q: For `Oc1ccc(Cl)cc1Cc1ccccc1` [Clorophene], which NOEL (subchronic, duration: 13 weeks, gavage, M/F, Fischer 344, Deaths + Clinical Observation: Red-yellow staining of urogenital region hair coat Alopecia of head Brown discoloration of hair coat around …) is on record?
A: < 30 mg/kg-day

Q: `C=CC(F)(F)C(F)(F)C(F)(F)C(F)(F)C(F)(F)C(F)(F)C(F)(F)C(F)(F)F` [1H,1H,2H-Perfluoro-1-decene] was tested. Which NOEL (short-term, duration: 28 days, gavage, M/F, Hematology: Trend of anemia + Blood Chemistry: GOT increase, GPT increase, T-CHO decrease + Absolute Organ Weight: Liver increase + …) did it give?
A: 8 mg/kg-day

Q: What does the source list for `CCCC(C)(COC(N)=O)COC(=O)NC(C)C` (stereo unspecified) [Carisoprodol]?
A: NOEL (subchronic, gavage, M/F, Fischer 344, Deaths + Clinical Observation: Lethargy Ataxia + Absolute Organ Weight: Right kidney increase, Liver increase + Relative Organ Weight: Right…): < 100 mg/kg-day; NOEL (subchronic, gavage, M/F, Fischer 344, Deaths + Clinical Observation: Lethargy Diarrhea Rough hair coat Prostration Urine stain in the vaginal area Ataxia + Body Weight Changes: …): < 100 mg/kg-day

Q: Which NOEL (subchronic, gavage, M, Sprague-Dawley, Deaths + Clinical Observation: Dead (4/12)Soiled perigenitalia of urine + Hematology: WBC increase, Neutrophils(%) increase, Lymphocytes(%) …) does the source give for `O=C(O)[C@H]1CCCC[C@H]1C(=O)O` [cis-1,2-Cyclohexanedicarboxylic acid] here?
A: 300 mg/kg-day

Q: For `O=C(Cl)c1ccc(Cl)cc1` [4-Chlorobenzoyl chloride], which LOEL [6] is on record?
A: 500 mg/kg-day

Q: What about the NOEL [6] of the same compound?
A: 100 mg/kg-day

Q: With `OCC1CO1` (stereo unspecified) [Glycidol] as the compound, how does the NOEL (subchronic, duration: 13 weeks, gavage, M/F, Fischer 344, Deaths + Body Weight Changes: decrease + Absolute Organ Weight: -- + Histopathology: Brain /cerebellum-Necrosis Brain-Demyelination Kidney-…) read?
A: < 25 mg/kg-day

Q: With `C=CCOC(=O)c1ccccc1C(=O)OCC=C` [Diallyl phthalate] as the compound, how does the NOEL (subchronic, duration: 13 weeks, gavage, M/F, Fischer 344, Deaths + Histopathology: Liver/periportal-Hepatocellular alteration Liver/periportal-Necrosis Liver/periportal-Fibrosis Liver/bile duct- …) read?
A: 25 mg/kg-day

Q: With `CSCCC=O` [3-(Methylthio)propanal] as the compound, how does the NOAEL (short-term, duration: 28 days, gavage, M/F, Wistar, Body Weight Changes: Mean body weight decrease, Weight gain decrease + Hematology: RBC decrease, HGB decrease + Blood Chemistry: T-Bil …) read?
A: 104 mg/kg-day

Q: `CCOC(N)=O` [Urethane] was tested. Which LOAEL [7] did it give?
A: 100 mg/kg-day

Q: And the LOEL [7]?
A: 100 mg/kg-day

Q: What about the NOAEL [7] of the same compound?
A: 20 mg/kg-day

Q: What about the NOEL [7] of the same compound?
A: 20 mg/kg-day

Q: And the NOEL (subchronic, drinking water, F, Fischer 344, Deaths + Body Weight Changes: decrease + Water Consumption: decrease + Hematology: WBC decrease, Lympho decrease + Blood Chemistry: BUN …)?
A: 10 mg/kg-day

Q: What about the NOEL (subchronic, drinking water, F, Fischer 344, Deaths + Clinical Observation: Thinness, abnormal posture, and ruffled fur + Body Weight Changes: decrease + Water Consumption: decrease + …) of the same compound?
A: 11 mg/kg-day

Q: And the NOEL (subchronic, drinking water, M/F, Fischer 344, Deaths + Body Weight Changes: decrease + Water Consumption: decrease + Hematology: WBC decrease, Lympho decrease + Blood Chemistry: BUN …)?
A: < 16.7 mg/kg-day

Q: What about the NOEL (subchronic, drinking water, M/F, Fischer 344, Deaths + Clinical Observation: Thinness, abnormal posture, and ruffled fur + Body Weight Changes: decrease + Water Consumption: decrease + …) of the same compound?
A: < 16.7 mg/kg-day

Q: Which NOEL (subchronic, diet, M/F, Fischer 344, Body Weight Changes: decrease + Hematology: Hct decrease, RBC decrease, Hgb decrease + Blood Chemistry: Cho increase, gamma-GTP increase + …) does the source give for `CN(C)c1ccc(C(=C2C=CC(=[N+](C)C)C=C2)c2ccccc2)cc1.[Cl-]` [Malachite green] here?
A: 12 mg/kg-day

Q: Which results are given for `CN(C)C(=O)Nc1ccc(Cl)cc1` [Monuron]?
A: NOAEL [8]: < 40 mg/kg-day; NOEL [8]: < 40 mg/kg-day

Q: For `CCCCCl` [1-Chlorobutane], which NOEL (subchronic, duration: 13 weeks, gavage, M/F, Fischer 344, Deaths + Clinical Observation: Convulsion + Body Weight Changes: decrease + Histopathology: Spleen-Extramedullary hematopoiesis) is on record?
A: 60 mg/kg-day

Q: For `CCCCC(CC)COP(=O)(O)CC(CC)CCCC` (stereo unspecified) [Phosphonic acid, P-(2-ethylhexyl)-, mono(2-ethylhexyl) ester], which NOEL (subchronic, gavage, M, Sprague-Dawley, Hematology: Hgb decrease, Hct decrease + Blood Chemistry: Alb increase, A/G increase + Absolute Organ Weight: Liver increase + Relative …) is on record?
A: 30 mg/kg-day

Q: For `O=C(CO)[C@@H](O)[C@H](O)[C@H](O)CO[C@H]1O[C@H](CO)[C@@H](O)[C@H](O)[C@H]1O` [6-O-Hexopyranosylhex-2-ulofuranose], which NOEL (subchronic, duration: 13 weeks, diet, Wistar) is on record?
A: 10%

Q: Which LOEL [9] does the source give for `Nc1ccccc1-c1ccccc1` [2-Biphenylamine] here?
A: 30 mg/kg-day

Q: And the NOEL [9]?
A: < 30 mg/kg-day

Q: What about the LOEL [10] of the same compound?
A: 100 mg/kg-day

Q: And the NOEL [10]?
A: 30 mg/kg-day
